ChEMBL document CHEMBL3860055, “Design, synthesis and in vitro evaluation of amidoximes as histone deacetylase inhibitors for cancer therapy” (Bioorg Med Chem Lett, 2016)

Assays:
[1] = Antiproliferative activity against human A549 cells measured after 72 hrs by WST1 assay; format: functional, cell-based; settings: A549, 72 h
[2] = molecular target: Histone deacetylase (HDAC1 and HDAC2) (Homo sapiens, UniProt Q13547+Q92769); test: Inhibition of HDAC1/HDAC2 in human HeLa cell nuclear extract preincubated for 20 mins followed by addition of HDAC green as substrate measured after 60 mins by fluorescence analysis; format: cell-based
[3] = Antiproliferative activity against human HCT116 cells measured after 72 hrs by WST1 assay; format: functional, cell-based; settings: HCT-116, 72 h
[4] = Cell cycle arrest in human HCT116 cells assessed as accumulation at G2/M-phase at 157 uM measured after 24 hrs by propidium iodide staining based flow cytometric analysis (reference value: 30%); format: functional; settings: HCT-116
[5] = Cell cycle arrest in human HCT116 cells assessed as accumulation at G2/M-phase at 26 uM measured after 24 hrs by propidium iodide staining based flow cytometric analysis (reference value: 30%); format: functional; settings: HCT-116
[6] = Cell cycle arrest in human A549 cells assessed as accumulation at G2/M-phase measured after 24 hrs by propidium iodide staining based flow cytometric analysis; format: functional
[7] = Cell cycle arrest in human A549 cells assessed as accumulation at G1-phase at 26 uM measured after 24 hrs by propidium iodide staining based flow cytometric analysis (reference value: 63%); format: functional
[8] = Cell cycle arrest in human A549 cells assessed as accumulation at G2/M-phase at 26 uM measured after 24 hrs by propidium iodide staining based flow cytometric analysis (reference value: 27%); format: functional
[9] = Cell cycle arrest in human HCT116 cells assessed as accumulation at G1-phase at 26 uM measured after 24 hrs by propidium iodide staining based flow cytometric analysis (reference value: 59%); format: functional; settings: HCT-116
[10] = Cell cycle arrest in human A549 cells assessed as accumulation at G1-phase at 157 uM measured after 24 hrs by propidium iodide staining based flow cytometric analysis (reference value: 63%); format: functional
[11] = Cell cycle arrest in human HCT116 cells assessed as accumulation at S-phase at 157 uM measured after 24 hrs by propidium iodide staining based flow cytometric analysis (reference value: 8%); format: functional; settings: HCT-116
[12] = Cell cycle arrest in human A549 cells assessed as accumulation at S-phase at 157 uM measured after 24 hrs by propidium iodide staining based flow cytometric analysis (reference value: 7%); format: functional
[13] = Cell cycle arrest in human A549 cells assessed as accumulation at S-phase at 26 uM measured after 24 hrs by propidium iodide staining based flow cytometric analysis (reference value: 7%); format: functional
[14] = Cell cycle arrest in human HCT116 cells assessed as accumulation at S-phase at 26 uM measured after 24 hrs by propidium iodide staining based flow cytometric analysis (reference value: 8%); format: functional; settings: HCT-116
[15] = Cell cycle arrest in human HCT116 cells assessed as accumulation at G1-phase at 157 uM measured after 24 hrs by propidium iodide staining based flow cytometric analysis (reference value: 59%); format: functional; settings: HCT-116
[16] = Cell cycle arrest in human A549 cells assessed as accumulation at G2/M-phase at 157 uM measured after 24 hrs by propidium iodide staining based flow cytometric analysis (reference value: 27%); format: functional

SMILES | EC50 [1] [µM] | IC50 [2] [µM] | EC50 [3] [µM] | other results
CCCCCCNC(=O)Nc1ccc(/C(N)=N/O)cc1 | > 1000 | 0.599 | 195 | –
CCCCNCCC(=O)Nc1ccc(/C(N)=N/O)cc1 | 881 | 0.528 | 153 | –
O=C(NCCc1ccccc1)Nc1ccc(C(=O)NO)cc1 | > 1000 | 0.582 | 175 | –
CCCCCCNCCCC(=O)Nc1ccc(/C(N)=N/O)cc1 | > 1000 | > 1 | 312 | –
CCCCCCNCC(=O)Nc1ccc(/C(N)=N/O)cc1 | 658 | 0.381 | 124 | –
CCCCNC(=O)Nc1ccc(/C(N)=N/O)cc1 | > 1000 | 0.591 | 186 | –
CCCCCCNCCCCC(=O)Nc1ccc(/C(N)=N/O)cc1 | > 1000 | > 1 | > 1000 | –
N/C(=N\O)c1ccc(NC(=O)NCCc2ccccc2)cc1 | 463 | 0.304 | 91 | –
CCCCNCCCCC(=O)Nc1ccc(/C(N)=N/O)cc1 | > 1000 | > 1 | 516 | –
CCCCNCCCC(=O)Nc1ccc(/C(N)=N/O)cc1 | > 1000 | 0.723 | 267 | –
N/C(=N\O)c1ccc(NC(=O)CCCCNCCc2ccccc2)cc1 | > 1000 | > 1 | 691 | –
N/C(=N\O)c1ccc(NC(=O)CNCCc2ccccc2)cc1 | 157 | 0.093 | 26 | Activity [4]: 87%; Activity [5]: 58%; Activity [6]: Dose-dependent effect; Activity [7]: 54%; Activity [8]: 36%; Activity [9]: 31%; Activity [10]: 22%; Activity [11]: 5%; Activity [12]: 9%; Activity [13]: 7%; Activity [14]: 7%; Activity [15]: 3%; Activity [16]: 68%
N/C(=N\O)c1ccc(NC(=O)CCCNCCc2ccccc2)cc1 | > 1000 | 0.697 | 218 | –
N/C(=N\O)c1ccc(NC(=O)CCNCCc2ccccc2)cc1 | 330 | 0.273 | 69 | –
CCCCNCC(=O)Nc1ccc(/C(N)=N/O)cc1 | 395 | 0.282 | 83 | –
CCCCCCNCCC(=O)Nc1ccc(/C(N)=N/O)cc1 | > 1000 | 0.602 | 193 | –
